Consider four compounds from patent publication US20030212136A1 (priority 2003, published 2003).

In brackets after ≈: the same amount, converted by molar mass. Read-outs that look alike come from different tables or passages of the source.

Usually solubility (thermodynamic) stands for solubility found after equilibrating the solid with the medium.

One series in a line: physchem. The following applies: water.
The conditions of series [1]: gastric pH range of 1-2, aqueous solution; cited from earlier work.
The next series has as its system brain dopamine. The following applies: rats, diet supplemented for 2 weeks; 70% depletion in nonsupplemented rodents; cited from earlier work.
The next series has as its system GP3A transgenic mice. The following applies: creatine supplementation; cited from earlier work.
Series [2] relates to patients with various muscular dystrophies. The note with it: supplemented for 8 weeks; cited from earlier work.

In turn, `CN(CC(=O)OCc1ccccc1)C(=N)N` [Creatine Benzyl Ester, creatine benzyl ester] displayed a thermodynamic solubility in the series “physchem” of 89.3 mg/mL (≈ 403 mM).
As for `CCOC(=O)CN(C)C(=N)N` [Creatine Ethyl Ester, creatine ethyl ester], in “physchem”, the solubility (thermodynamic) was found to be 206 mg/mL (≈ 1290 mM).
For `CN(CC(=O)O)C(=N)N` [Creatine], the “creatinine/creatine ratio at equilibrium” value in series [1] was “greater than or equal to 30”. Also, in the series on brain dopamine, the “reduction in brain dopamine” value is recorded as 10%. In the series on GP3A transgenic mice, the increase of life-span result was “up to 26 days”. In the series “Partition coefficient”, the “partition coefficient” value came to 0.015. In series [2], the “improvement in neuromuscular symptom score” value is reported as 10% and the increase in strength is 3%.
Take `CN(CC(=O)O)C(=N)N.O` [creatine monohydrate]: the partition coefficient in “Partition coefficient” (studies in the laboratory) was determined as 0.015±0.007.
